{"source": "patent US9284345B2", "about": "(priority 2007, dated 2016)", "key": {"Immature Rat CX": {"tested_on": "Immature Rat CX", "settings": "sc"}, "Immature Rat CX + DHT": {"tested_on": "Immature Rat CX + DHT", "test": "animal or person", "format": "in vivo", "settings": "for change in vivo at 0.1 mg / change in vivo at 0.5 mg: Rattus norvegicus, 168 h"}, "[1]": {"tested_on": "CX+ 4-DIONE in Mature Rat", "test": "Systemic antiandrogenic activity in mature male rats", "format": "in vivo"}, "Intact Rat": {"tested_on": "Intact Rat", "test": "In vivo activity in intact rat (organ and muscle weight)", "settings": "rat, in vivo"}, "in vivo": {"test": "in vivo", "settings": "male, Sprague-Dawley, rat, in vivo, po, 0.5 mg"}, "[2]": {"settings": "po, read-out: In Vivo Antagonist % Change vs DHT (CX = −100%) SV"}, "[3]": {"settings": "po, read-out: In Vivo Antagonist % Change vs DHT (CX = −100%) VP"}}, "note": "Like-named read-outs stand apart in the source and are kept apart here."}
{"smiles": "CC(C)C(=O)Nc1ccc([N+](=O)[O-])c(C(F)(F)F)c1", "note": "[Flutamide, reference compound]", "values": [{"measurement": "In Vivo Agonist % Change vs CX (DHT = +100%) SV", "setting": "Immature Rat CX", "result": "(0; 0.2 mg, sc) %"}, {"measurement": "In Vivo Agonist % Change vs CX (DHT = +100%) VP", "setting": "Immature Rat CX", "result": "(1; 0.2 mg, sc) %"}, {"measurement": "change in vivo at 0.1 mg", "setting": "Immature Rat CX + DHT; [2]", "result": "-62 ± 4", "unit": "%"}, {"measurement": "change in vivo at 0.5 mg", "setting": "Immature Rat CX + DHT; [2]", "result": -83, "unit": "%"}, {"measurement": "change in vivo at 0.1 mg", "setting": "Immature Rat CX + DHT; [3]", "result": "-26 ± 2", "unit": "%"}, {"measurement": "change in vivo at 0.5 mg", "setting": "Immature Rat CX + DHT; [3]", "result": -48, "unit": "%"}, {"measurement": "inhibition of DHT-stimulated seminal vesicle weight", "setting": "Immature Rat CX + DHT; rat, in vivo", "result": 83, "unit": "%"}, {"measurement": "inhibition of DHT-stimulated ventral prostate weight", "setting": "Immature Rat CX + DHT; rat, in vivo", "result": 48, "unit": "%"}, {"measurement": "In Vivo Anti-A Rat CX + DHT % change vs DHT (CX CONT = −100%) Bulbo", "setting": "Immature Rat CX + DHT; rat, in vivo, po", "result": "[−68 ± 2] %"}, {"measurement": "In Vivo Anti-A Rat CX + DHT % change vs DHT (CX CONT = −100%) SV", "setting": "Immature Rat CX + DHT; rat, in vivo, po", "result": "[−83 ± 1] %"}, {"measurement": "In Vivo Anti-A Rat CX + DHT % change vs DHT (CX CONT = −100%) VP", "setting": "Immature Rat CX + DHT; rat, in vivo, po", "result": "[−48 ± 1] %"}, {"measurement": "% change vs 4-DIONE Cont (CX Cont = −100% inh) Seminal Vesicles", "setting": "[1]; 1 mg/rat/per os/ID", "result": "−102 ± 8", "unit": "%"}, {"measurement": "% change vs 4-DIONE Cont (CX Cont = −100% inh) Ventral Prostate", "setting": "[1]; 1 mg/rat/per os/ID", "result": "−47 ± 7", "unit": "%"}, {"measurement": "inhibition of prostate weight (4-dione stimulated)", "setting": "[1]; 5 mg/rat", "result": 70, "unit": "%"}, {"measurement": "% change vs 4-DIONE Cont (CX Cont = −100% inh) Seminal Vesicles", "setting": "[1]; 5 mg/rat/per os/ID", "result": "−106 ± 6", "unit": "%"}, {"measurement": "% change vs 4-DIONE Cont (CX Cont = −100% inh) Ventral Prostate", "setting": "[1]; 5 mg/rat/per os/ID", "result": "−70 ± 3", "unit": "%"}, {"measurement": "In Vivo Intact Rat % change vs Intact CONT (Intact CONT = +100%; CX CONT = 0%) Bulbo", "setting": "Intact Rat", "result": "+42 ± 6%"}, {"measurement": "In Vivo Intact Rat % change vs Intact CONT (Intact CONT = +100%; CX CONT = 0%) SZ", "setting": "Intact Rat", "result": "+33 ± 4%"}, {"measurement": "In Vivo Intact Rat % change vs Intact CONT (Intact CONT = +100%; CX CONT = 0%) VP", "setting": "Intact Rat", "result": "+75 ± 4%"}, {"measurement": "AUC", "setting": "in vivo", "result": "0.039 ± 0.004", "unit": "µg·h/mL"}]}
